According to patent US10800741B2 (ANCUREALL PHARMACEUTICAL (SHANGHAI) CO., LTD., priority 2017, dated 2020):
Read-outs that look alike come from different tables or passages of the source.

Key:
Experiment in all cases: KINOMEscan in vitro binding to 468 labeled protein kinases
protein kinases [1] = target: T1, protein kinases (Homo sapiens, UniProt P00533, DEL752-759); conditions: EGFR(S752-1759del)
T1 construct: purchased Discovery X company (USA), KINOMEscan screening platform
Summary of the method: (§1)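 Duplicate in vitro binding reactions at 1 nM, 10 nM and 1000 nM compound against a panel of 468 labelled protein kinases (KINOMEscan). Binding expressed relative to solvent control as a percentage, stronger affinity giving a lower value.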

protein kinases [2] = target: T2, protein kinases (Homo sapiens, UniProt P12931); conditions: SRC, read-out: Test compound/solvent control (%)
T2 construct: purchased Discovery X company (USA), KINOMEscan screening platform
T2 sequence (P12931 whole entry): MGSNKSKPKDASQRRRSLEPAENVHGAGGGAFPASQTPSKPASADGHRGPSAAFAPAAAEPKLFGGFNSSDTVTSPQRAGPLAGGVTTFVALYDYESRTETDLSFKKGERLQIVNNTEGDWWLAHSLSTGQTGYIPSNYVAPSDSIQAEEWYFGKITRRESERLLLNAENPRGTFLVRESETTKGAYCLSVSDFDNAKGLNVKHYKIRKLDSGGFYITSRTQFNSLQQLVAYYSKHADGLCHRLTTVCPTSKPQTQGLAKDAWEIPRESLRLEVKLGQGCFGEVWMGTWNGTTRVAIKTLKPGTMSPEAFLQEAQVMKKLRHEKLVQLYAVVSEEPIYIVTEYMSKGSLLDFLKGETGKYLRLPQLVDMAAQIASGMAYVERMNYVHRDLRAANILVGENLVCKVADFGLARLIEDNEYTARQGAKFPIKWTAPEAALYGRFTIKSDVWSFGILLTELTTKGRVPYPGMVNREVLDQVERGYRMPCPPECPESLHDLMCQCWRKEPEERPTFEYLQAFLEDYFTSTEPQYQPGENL
Summary of the method: as §1

protein kinases [3] = target: T3, protein kinases (Homo sapiens, UniProt P07949, V804M); conditions: RET(V804M), read-out: Test compound/solvent control (%)
T3 construct: purchased Discovery X company (USA), KINOMEscan screening platform
T3 sequence (P07949 29-1114 V804M): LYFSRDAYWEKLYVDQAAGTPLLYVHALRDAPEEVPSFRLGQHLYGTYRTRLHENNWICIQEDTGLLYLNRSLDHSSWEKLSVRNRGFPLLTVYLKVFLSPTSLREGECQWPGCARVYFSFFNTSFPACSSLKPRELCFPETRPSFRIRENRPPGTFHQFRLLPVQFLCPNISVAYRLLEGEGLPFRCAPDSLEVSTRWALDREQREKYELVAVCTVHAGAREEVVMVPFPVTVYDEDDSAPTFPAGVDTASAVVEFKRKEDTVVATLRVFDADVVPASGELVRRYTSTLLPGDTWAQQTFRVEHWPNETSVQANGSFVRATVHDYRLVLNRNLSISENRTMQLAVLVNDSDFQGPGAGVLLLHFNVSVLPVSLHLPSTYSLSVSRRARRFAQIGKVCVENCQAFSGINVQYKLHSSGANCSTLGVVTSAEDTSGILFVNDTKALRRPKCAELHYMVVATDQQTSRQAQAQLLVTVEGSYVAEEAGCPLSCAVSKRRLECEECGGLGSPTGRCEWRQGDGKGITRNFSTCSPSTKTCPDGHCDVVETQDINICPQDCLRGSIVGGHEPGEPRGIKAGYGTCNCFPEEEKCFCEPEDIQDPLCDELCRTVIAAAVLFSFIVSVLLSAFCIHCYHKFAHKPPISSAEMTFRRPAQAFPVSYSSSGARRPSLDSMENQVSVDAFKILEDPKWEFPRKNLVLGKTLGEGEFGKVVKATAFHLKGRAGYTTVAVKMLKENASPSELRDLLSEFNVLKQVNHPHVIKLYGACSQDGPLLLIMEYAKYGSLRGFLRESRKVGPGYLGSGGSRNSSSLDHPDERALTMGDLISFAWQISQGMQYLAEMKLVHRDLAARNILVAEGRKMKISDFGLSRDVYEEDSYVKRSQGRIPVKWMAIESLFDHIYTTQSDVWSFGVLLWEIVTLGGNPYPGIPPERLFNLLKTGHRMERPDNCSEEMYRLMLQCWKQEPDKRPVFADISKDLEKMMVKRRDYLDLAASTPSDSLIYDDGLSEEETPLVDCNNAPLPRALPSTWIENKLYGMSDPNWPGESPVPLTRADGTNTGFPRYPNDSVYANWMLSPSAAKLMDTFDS
Summary of the method: as §1

protein kinases [4] = target: T4, protein kinases (Homo sapiens, UniProt P00519); conditions: read-out: Test compound/solvent control (%); for remaining binding at 0.001 µM: 1 nM; for remaining binding at 0.01 µM: 10 nM; for remaining binding at 1 µM: 1000 nM
T4 construct: purchased Discovery X company (USA), KINOMEscan screening platform
Summary of the method: as §1

protein kinases [5] = target: T5, protein kinases (Homo sapiens, UniProt P04629); conditions: TRKA (NTRK1), read-out: Test compound/solvent control (%)
T5 construct: purchased Discovery X company (USA), KINOMEscan screening platform
T5 sequence (P04629 33-796): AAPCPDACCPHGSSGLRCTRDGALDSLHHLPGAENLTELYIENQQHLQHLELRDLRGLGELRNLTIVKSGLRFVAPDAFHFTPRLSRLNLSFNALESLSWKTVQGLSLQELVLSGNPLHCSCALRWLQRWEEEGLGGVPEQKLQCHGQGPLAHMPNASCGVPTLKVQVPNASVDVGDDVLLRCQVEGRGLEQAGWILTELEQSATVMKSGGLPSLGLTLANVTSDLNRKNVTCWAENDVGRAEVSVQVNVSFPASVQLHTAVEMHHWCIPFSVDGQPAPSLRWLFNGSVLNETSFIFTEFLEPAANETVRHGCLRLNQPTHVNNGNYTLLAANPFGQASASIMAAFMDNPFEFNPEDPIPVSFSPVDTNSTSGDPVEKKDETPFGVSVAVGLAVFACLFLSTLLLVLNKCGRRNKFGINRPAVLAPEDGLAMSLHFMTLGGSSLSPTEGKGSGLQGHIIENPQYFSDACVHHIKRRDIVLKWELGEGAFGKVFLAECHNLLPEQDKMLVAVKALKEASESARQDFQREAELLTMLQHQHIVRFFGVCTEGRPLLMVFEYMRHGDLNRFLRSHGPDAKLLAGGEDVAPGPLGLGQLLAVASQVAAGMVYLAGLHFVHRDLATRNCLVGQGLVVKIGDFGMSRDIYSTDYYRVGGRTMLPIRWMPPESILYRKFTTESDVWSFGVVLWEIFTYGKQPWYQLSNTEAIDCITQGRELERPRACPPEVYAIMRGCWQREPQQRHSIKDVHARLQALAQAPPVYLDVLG
Summary of the method: as §1

protein kinases [6] = target: T6, protein kinases (Homo sapiens, UniProt P36888, N841I); conditions: FLT3(N841I), read-out: Test compound/solvent control (%)
T6 construct: purchased Discovery X company (USA), KINOMEscan screening platform
T6 sequence (P36888 27-993 N841I): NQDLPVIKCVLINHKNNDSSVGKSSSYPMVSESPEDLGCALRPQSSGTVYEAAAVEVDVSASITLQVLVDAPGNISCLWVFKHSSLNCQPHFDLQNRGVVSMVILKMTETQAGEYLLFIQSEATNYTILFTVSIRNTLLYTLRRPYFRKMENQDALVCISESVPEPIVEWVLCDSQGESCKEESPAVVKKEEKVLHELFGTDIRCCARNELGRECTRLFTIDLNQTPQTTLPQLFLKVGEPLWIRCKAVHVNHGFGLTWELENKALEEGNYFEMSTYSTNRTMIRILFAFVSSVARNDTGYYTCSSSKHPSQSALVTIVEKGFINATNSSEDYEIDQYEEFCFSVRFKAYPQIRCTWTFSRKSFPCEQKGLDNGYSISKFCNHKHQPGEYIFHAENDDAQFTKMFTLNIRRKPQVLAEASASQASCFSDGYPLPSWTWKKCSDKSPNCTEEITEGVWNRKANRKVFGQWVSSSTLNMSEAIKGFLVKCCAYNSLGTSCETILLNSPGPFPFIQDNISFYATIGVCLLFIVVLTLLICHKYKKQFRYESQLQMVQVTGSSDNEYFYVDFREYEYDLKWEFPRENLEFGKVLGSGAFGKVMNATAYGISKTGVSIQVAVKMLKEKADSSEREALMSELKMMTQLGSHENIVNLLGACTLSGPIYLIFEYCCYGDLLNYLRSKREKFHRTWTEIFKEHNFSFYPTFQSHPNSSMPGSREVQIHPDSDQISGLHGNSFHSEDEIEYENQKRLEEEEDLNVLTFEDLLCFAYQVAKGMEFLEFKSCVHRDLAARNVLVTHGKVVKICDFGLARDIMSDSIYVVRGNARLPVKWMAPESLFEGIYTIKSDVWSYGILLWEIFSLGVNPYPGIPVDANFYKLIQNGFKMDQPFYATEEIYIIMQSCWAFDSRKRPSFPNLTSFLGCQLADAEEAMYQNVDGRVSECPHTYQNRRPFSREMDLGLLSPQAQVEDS
Summary of the method: as §1

protein kinases [7] = target: T7, protein kinases (Homo sapiens, UniProt P00519, H396P); conditions: read-out: Test compound/solvent control (%); for remaining binding at 0.001 µM: 1 nM; for remaining binding at 0.01 µM: 10 nM; for remaining binding at 1 µM: 1000 nM
T7 construct: purchased Discovery X company (USA), KINOMEscan screening platform
Summary of the method: as §1

protein kinases [8] = target: T8, protein kinases (Homo sapiens, UniProt P00519, T315I); conditions: read-out: Test compound/solvent control (%); for remaining binding at 0.001 µM: 1 nM; for remaining binding at 0.01 µM: 10 nM; for remaining binding at 1 µM: 1000 nM
T8 construct: purchased Discovery X company (USA), KINOMEscan screening platform
Summary of the method: as §1

protein kinases [9] = target: T9, protein kinases (Homo sapiens, UniProt P08922); conditions: ROS1, read-out: Test compound/solvent control (%)
T9 construct: purchased Discovery X company (USA), KINOMEscan screening platform
Summary of the method: as §1

protein kinases [10] = target: T10, protein kinases (Homo sapiens, UniProt P35590); conditions: TIE1, read-out: Test compound/solvent control (%)
T10 construct: purchased Discovery X company (USA), KINOMEscan screening platform
T10 sequence (P35590 22-1138): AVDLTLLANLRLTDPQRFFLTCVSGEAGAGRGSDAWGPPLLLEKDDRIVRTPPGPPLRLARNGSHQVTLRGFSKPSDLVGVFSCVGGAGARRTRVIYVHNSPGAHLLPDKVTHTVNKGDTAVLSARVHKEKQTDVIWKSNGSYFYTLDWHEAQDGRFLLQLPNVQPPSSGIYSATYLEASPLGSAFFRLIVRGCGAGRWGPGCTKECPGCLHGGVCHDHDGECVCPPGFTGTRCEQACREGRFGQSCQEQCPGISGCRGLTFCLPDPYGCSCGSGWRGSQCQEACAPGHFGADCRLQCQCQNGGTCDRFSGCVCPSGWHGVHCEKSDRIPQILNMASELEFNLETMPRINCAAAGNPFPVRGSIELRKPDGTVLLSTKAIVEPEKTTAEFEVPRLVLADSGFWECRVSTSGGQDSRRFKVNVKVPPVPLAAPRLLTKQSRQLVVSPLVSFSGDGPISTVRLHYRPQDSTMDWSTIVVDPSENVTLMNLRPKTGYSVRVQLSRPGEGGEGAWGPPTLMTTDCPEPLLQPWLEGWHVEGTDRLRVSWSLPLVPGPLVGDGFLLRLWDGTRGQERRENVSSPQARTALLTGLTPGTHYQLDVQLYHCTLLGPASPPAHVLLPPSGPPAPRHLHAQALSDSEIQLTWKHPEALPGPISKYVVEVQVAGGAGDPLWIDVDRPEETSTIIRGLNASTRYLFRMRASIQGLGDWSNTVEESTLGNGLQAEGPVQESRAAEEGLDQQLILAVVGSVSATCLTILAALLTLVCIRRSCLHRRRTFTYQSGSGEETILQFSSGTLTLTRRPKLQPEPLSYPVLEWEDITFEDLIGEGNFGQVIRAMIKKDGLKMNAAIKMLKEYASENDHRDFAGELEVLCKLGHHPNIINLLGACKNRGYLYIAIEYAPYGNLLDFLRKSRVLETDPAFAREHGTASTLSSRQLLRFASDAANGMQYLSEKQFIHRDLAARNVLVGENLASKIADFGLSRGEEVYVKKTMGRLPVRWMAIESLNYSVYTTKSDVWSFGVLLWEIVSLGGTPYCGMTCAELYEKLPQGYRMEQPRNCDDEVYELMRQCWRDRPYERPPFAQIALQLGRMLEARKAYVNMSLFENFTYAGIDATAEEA
Summary of the method: as §1

protein kinases [11] = target: T11, protein kinases (Homo sapiens, UniProt P00533, T790M); conditions: EGFR(T790M)
T11 construct: purchased Discovery X company (USA), KINOMEscan screening platform
Summary of the method: as §1

protein kinases [12] = tested on: protein kinases
Summary of the method: as §1

protein kinases [13] = target: T12, protein kinases (Homo sapiens, UniProt P00533, G719C); conditions: EGFR(G719C)
T12 construct: purchased Discovery X company (USA), KINOMEscan screening platform
Summary of the method: as §1

T1 sequence (P00533 with tags, fused parts or gaps DEL752-759): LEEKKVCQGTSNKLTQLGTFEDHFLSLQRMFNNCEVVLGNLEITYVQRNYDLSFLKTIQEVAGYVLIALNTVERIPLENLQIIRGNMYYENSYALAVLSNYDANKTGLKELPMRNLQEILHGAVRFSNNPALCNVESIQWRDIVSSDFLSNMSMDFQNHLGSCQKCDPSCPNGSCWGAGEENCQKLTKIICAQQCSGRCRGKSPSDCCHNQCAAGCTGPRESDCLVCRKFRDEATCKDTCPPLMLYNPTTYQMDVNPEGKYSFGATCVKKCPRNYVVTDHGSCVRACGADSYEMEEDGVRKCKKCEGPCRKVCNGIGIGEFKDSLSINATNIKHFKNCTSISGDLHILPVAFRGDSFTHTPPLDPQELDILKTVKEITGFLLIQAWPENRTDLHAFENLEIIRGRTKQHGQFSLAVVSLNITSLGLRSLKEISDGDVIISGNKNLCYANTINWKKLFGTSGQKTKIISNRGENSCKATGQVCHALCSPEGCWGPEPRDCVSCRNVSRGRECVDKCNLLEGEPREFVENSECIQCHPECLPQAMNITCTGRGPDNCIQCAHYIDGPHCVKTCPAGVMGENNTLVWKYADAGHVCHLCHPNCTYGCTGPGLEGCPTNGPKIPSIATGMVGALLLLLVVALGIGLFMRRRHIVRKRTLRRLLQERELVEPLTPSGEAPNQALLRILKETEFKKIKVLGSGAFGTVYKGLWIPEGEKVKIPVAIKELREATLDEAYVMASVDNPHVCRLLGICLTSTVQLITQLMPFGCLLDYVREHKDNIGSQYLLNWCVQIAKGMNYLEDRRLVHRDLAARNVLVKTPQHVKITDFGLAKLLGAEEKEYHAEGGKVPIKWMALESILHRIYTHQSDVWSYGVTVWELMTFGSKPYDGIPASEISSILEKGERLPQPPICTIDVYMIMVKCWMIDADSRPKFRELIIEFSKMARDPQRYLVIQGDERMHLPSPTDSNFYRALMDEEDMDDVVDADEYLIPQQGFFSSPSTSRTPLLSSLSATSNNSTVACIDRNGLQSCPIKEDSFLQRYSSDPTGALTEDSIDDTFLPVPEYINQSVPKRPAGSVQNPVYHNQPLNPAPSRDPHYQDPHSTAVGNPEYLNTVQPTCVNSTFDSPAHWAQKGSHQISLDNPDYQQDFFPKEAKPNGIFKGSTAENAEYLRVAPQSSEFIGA

COCCOc1cc2nccc(Oc3ccc(NC(=O)Nc4cc(C(C)(C)C)n[nH]4)c(Cl)c3)c2cc1NC(C)=O [Compound 66, N-[4-{4-[3-(5-tert-butyl-2H-pyrazol-3-yl)-ureido]-3-chloro-phenoxy}-7-(2-methoxy-ethoxy)-quinolin-6-yl]-acetamide]
Test compound/solvent control (%) (protein kinases [1]; 1 nM): 90%
Test compound/solvent control (%) (protein kinases [1]; 10 nM): 29%
Test compound/solvent control (%) (protein kinases [1]; 1000 nM): 0%
remaining binding at 0.001 µM (protein kinases [2]; 1 nM): 36%
remaining binding at 0.01 µM (protein kinases [2]; 10 nM): 1.4%
remaining binding at 1 µM (protein kinases [2]; 1000 nM): 0.1%
remaining binding at 0.001 µM (protein kinases [3]; 1 nM): 100%
remaining binding at 0.01 µM (protein kinases [3]; 10 nM): 34%
remaining binding at 1 µM (protein kinases [3]; 1000 nM): 0%
remaining binding at 0.001 µM (protein kinases [4]; ABL1-phosphorylated): 49%
remaining binding at 0.01 µM (protein kinases [4]; ABL1-phosphorylated): 9.9%
remaining binding at 1 µM (protein kinases [4]; ABL1-phosphorylated): 0.1%
remaining binding at 0.001 µM (protein kinases [4]; ABL1-unphosphorylated): 41%
remaining binding at 0.01 µM (protein kinases [4]; ABL1-unphosphorylated): 8.3%
remaining binding at 1 µM (protein kinases [4]; ABL1-unphosphorylated): 0%
remaining binding at 0.001 µM (protein kinases [5]; 1 nM): 48%
remaining binding at 0.01 µM (protein kinases [5]; 10 nM): 5.5%
remaining binding at 1 µM (protein kinases [5]; 1000 nM): 0.2%
remaining binding at 0.001 µM (protein kinases [6]; 1 nM): 88%
remaining binding at 0.01 µM (protein kinases [6]; 10 nM): 17%
remaining binding at 1 µM (protein kinases [6]; 1000 nM): 0.25%
remaining binding at 0.001 µM (protein kinases [7]; ABL1(H396P)-phosphorylated): 55%
remaining binding at 0.01 µM (protein kinases [7]; ABL1(H396P)-phosphorylated): 9.7%
remaining binding at 1 µM (protein kinases [7]; ABL1(H396P)-phosphorylated): 0%
remaining binding at 0.001 µM (protein kinases [7]; ABL1(H396P)-unphosphorylated): 27%
remaining binding at 0.01 µM (protein kinases [7]; ABL1(H396P)-unphosphorylated): 1.8%
remaining binding at 1 µM (protein kinases [7]; ABL1(H396P)-unphosphorylated): 0.05%
remaining binding at 0.001 µM (protein kinases [8]; ABL1(T315I)-phosphorylated): 100%
remaining binding at 0.01 µM (protein kinases [8]; ABL1(T315I)-phosphorylated): 34%
remaining binding at 1 µM (protein kinases [8]; ABL1(T315I)-phosphorylated): 0.45%
remaining binding at 0.001 µM (protein kinases [8]; ABL1(T315I)-unphosphorylated): 96%
remaining binding at 0.01 µM (protein kinases [8]; ABL1(T315I)-unphosphorylated): 32%
remaining binding at 1 µM (protein kinases [8]; ABL1(T315I)-unphosphorylated): 0.15%
remaining binding at 0.001 µM (protein kinases [9]; 1 nM): 85%
remaining binding at 0.01 µM (protein kinases [9]; 10 nM): 17%
remaining binding at 1 µM (protein kinases [9]; 1000 nM): 4.6%
remaining binding at 0.001 µM (protein kinases [10]; 1 nM): 41%
remaining binding at 0.01 µM (protein kinases [10]; 10 nM): 21%
remaining binding at 1 µM (protein kinases [10]; 1000 nM): 2%
Test compound/solvent control (%) (protein kinases [11]; 1 nM): 83%
Test compound/solvent control (%) (protein kinases [11]; 10 nM): 19%
Test compound/solvent control (%) (protein kinases [11]; 1000 nM): 0.2%
Test compound/solvent control (%) (protein kinases [12]; EGFR(L747-E749del, A750P), 1 nM): 92%
Test compound/solvent control (%) (protein kinases [12]; EGFR(L747-E749del, A750P), 10 nM): 11%
Test compound/solvent control (%) (protein kinases [12]; EGFR(L747-E749del, A750P), 1000 nM): 0%
Test compound/solvent control (%) (protein kinases [12]; EGFR(L747-S752del, P753S), 1 nM): 67%
Test compound/solvent control (%) (protein kinases [12]; EGFR(L747-S752del, P753S), 10 nM): 16%
Test compound/solvent control (%) (protein kinases [12]; EGFR(L747-S752del, P753S), 1000 nM): 1.6%
Test compound/solvent control (%) (protein kinases [12]; EGFR(L747-T751del, Sins), 1 nM): 68%
Test compound/solvent control (%) (protein kinases [12]; EGFR(L747-T751del, Sins), 10 nM): 11%
Test compound/solvent control (%) (protein kinases [12]; EGFR(L747-T751del, Sins), 1000 nM): 2.7%
Test compound/solvent control (%) (protein kinases [13]; 1 nM): 83%
Test compound/solvent control (%) (protein kinases [13]; 10 nM): 30%
Test compound/solvent control (%) (protein kinases [13]; 1000 nM): 0.2%
